Consider 13 compounds from patent publication US7282608B2, “Inhibitors of histone deacetylase” (Methylgene, Inc., priority 2002, dated 2007).

The structures appear in SMILES notation.

The target of assay [1] is T1, cloned recombinant human HDAC-1 (Homo sapiens, UniProt Q13547).
T1 construct: made in house; host or cells: Baculovirus insect cell expression system
Put plainly: Human HDAC-1 Assay 1: [3H]-acetylated histone deacetylase assay. Particulars: Assay 1, unbracketed data; [3H]-acetylated histone substrate, 10 min at 37° C. The assay is classed as biochemical. The procedure: HDAC inhibitors were screened against a cloned recombinant human HDAC-1 enzyme expressed and purified from a Baculovirus insect cell expression system. For deacetylase assays, 20,000 cpm of the [^3H]-metabolically labeled acetylated histone substrate (M. Yoshida et al., J. Biol. Chem. 265(28): 17174–17179 (1990)) was incubated with 30 μg of the cloned recombinant hHDAC-1 for 10 minutes at 37° C. The reaction was stopped by adding acetic acid (0.04 M, final concentration) and HCl (250 mM, final concentration). […] For inhibition studies, the enzyme was preincubated with compounds at 4° C. for 30 minutes prior to initiation of the enzymatic assay. IC50 values for HDAC enzyme inhibitors were determined by performing dose response curves with individual compounds and determining the concentration of inhibitor producing fifty percent of the maximal inhibition. IC50 values for representative compounds assayed using this procedure are presented in the third column of Tables 7–10 (excepting bracketed data).

For the next assay, the system named is HCT116 cells. Put plainly: MTT assay. The assay is classed as cell-based. The conditions noted are these: Homo sapiens, HCT-116, 72 hours. The procedure: HCT116 cells (2000/well) were plated into 96-well tissue culture plates one day before compound treatment. Compounds at various concentrations were added to the cells. The cells were incubated for 72 hours at 37° C. in 5% CO2 incubator. MTT (3-[4,5-dimethylthiazol-2-yl]-2,5 diphenyl tetrazolium bromide, Sigma) was added at a final concentration of 0.5 mg/ml and incubated with the cells for 4 hours before one volume of solubilization buffer (50% N,N-dimethylformamide, 20% SDS, pH 4.7) was added onto the cultured cells. After overnight incubation, solubilized dye was quantified by colorimetric reading at […] using a reference at […] using an MR700 plate reader (Dynatech Laboratories Inc.). OD values were converted to cell numbers according to a standard growth curve of the relevant cell line. The concentration which reduces cell numbers to 50% of that of solvent treated cells is determined as MTT IC50. IC50 values for representative compounds are presented in the fourth column of Tables 7–10.
(Tetrazolium assays rely on reduction of a dye to a coloured formazan, in cell work by metabolically active cells.)

Assay [2] deals with acetylated histone H-4 in T24 human bladder cancer cells. The assay can be described thus: Histone H4 acetylation in whole cells by immunoblots. Particulars: 16 h, immunoblot densitometry, read-out: H4 Ac (T24) EC50. The assay is classed as cell-based. The procedure: T24 human bladder cancer cells growing in culture were incubated with HDAC inhibitors for 16 h. Histones were extracted from the cells after the culture period as described by M. Yoshida et al. (J. Biol. Chem. 265(28): 17174–17179 (1990)). […] of total histone protein was loaded onto SDS/PAGE and transferred to nitrocellulose membranes. Membranes were probed with polyclonal antibodies specific for acetylated histone H-4 (Upstate Biotech Inc.), followed by horse radish peroxidase conjugated secondary antibodies (Sigma). Enhanced Chemiluminescence (ECL) (Amersham) detection was performed using Kodak films (Eastman Kodak). Acetylated H-4 signal was quantified by densitometry. Representative data are presented in the fifth column of Table 7–10. Data are presented as the concentration effective for […] the acetylated H-4 signal by 50% (EC50).
A general note: In western blotting, separated proteins are transferred to a membrane and probed.

T1 sequence (Q13547 whole entry): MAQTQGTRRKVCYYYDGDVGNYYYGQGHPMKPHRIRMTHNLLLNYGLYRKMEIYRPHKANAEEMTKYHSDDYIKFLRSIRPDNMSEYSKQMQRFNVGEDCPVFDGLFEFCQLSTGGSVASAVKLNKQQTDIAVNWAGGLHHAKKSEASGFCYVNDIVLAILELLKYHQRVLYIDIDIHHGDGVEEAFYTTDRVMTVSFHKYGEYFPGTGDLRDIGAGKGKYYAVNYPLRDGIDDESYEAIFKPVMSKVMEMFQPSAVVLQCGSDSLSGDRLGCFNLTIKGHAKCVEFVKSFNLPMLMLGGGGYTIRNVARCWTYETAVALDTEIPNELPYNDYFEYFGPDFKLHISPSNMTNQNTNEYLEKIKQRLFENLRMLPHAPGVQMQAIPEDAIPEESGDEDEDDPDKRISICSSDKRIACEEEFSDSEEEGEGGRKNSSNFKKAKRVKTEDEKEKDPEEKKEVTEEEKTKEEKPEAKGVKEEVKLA

The IC50 is the concentration that gives 50% inhibition. As usually defined, the EC50 is the concentration at which the effect is half-maximal. On to `COc1cc(NC/C=C/c2ccc(C(=O)Nc3ccccc3N)cc2)cc(OC)c1OC` [XVb, N-(2-Amino-phenyl)-4[3-(3,4,5-trimethoxy-phenylamino)-propenyl]-benzamide], for which the figures for the half-inhibitory concentration (IC50) (in assay [1]; with HCT116 cells) were 4000 nM and 100 nM, respectively. The EC50 in assay [2] amounted to 3000 nM.
The matching figures for `COc1cc(/C=C/C(=O)c2ccc(C(=O)Nc3ccccc3N)cc2)cc(OC)c1OC` [Id, N-(2-Amino-phenyl)-4-[3-(3,4,5-trimethoxy-phenyl)-acryloyl]-benzamide]: 3000 nM, 600 nM and 3000 nM.
The matching figures for `CC(=O)c1cc2c(cc1NC/C=C/c1ccc(C(=O)Nc3ccccc3N)cc1)OCO2` [XVf]: 3000 nM, 1000 nM and 2000 nM.
The matching figures for `Nc1ccccc1NC(=O)c1ccc(/C=C/C(=O)NC2Cc3ccccc3C2)cc1` [Vh, N-(2-Amino-phenyl)-4-[2-(indan-2-ylcarbamoyl)-vinyl]-benzamide]: 3000 nM, 1000 nM and 10000 nM.
On to `Nc1ccccc1NC(=O)c1ccc(C(=O)/C=C/c2cc(F)ccc2F)cc1` [Ii, N-(2-Amino-phenyl)-4-[3-(2,5-difluoro-phenyl)-acryloyl]-benzamide], for which the IC50 in assay [1] was found to be 3000 nM; with HCT116 cells, 1000 nM. Moreover, the EC50 in assay [2] is 3000 nM.
Consider `Nc1ccccc1NC(=O)c1ccc(/C=C/C(=O)c2ccccc2[N+](=O)[O-])cc1` [XXIVb, N-(2-Amino-phenyl)-4-[3-(2-nitro-phenyl)-3-oxo-propenyl]-benzamide], for which the IC50 was 8000 nM in assay [1] and 100 nM in the assay with HCT116 cells. Besides, the EC50 in assay [2] was 3000 nM.
The matching figures for `CSc1nc(NC/C=C/c2ccc(C(=O)Nc3ccccc3N)cc2)n[nH]1` [XVe, N-(2-Amino-phenyl)-4-[3-(5-methylsulfanyl-1H-[1,2,4]triazol-3-ylamino)-propenyl]-benzamide]: 2000 nM, 500 nM and 1000 nM.
The corresponding values for `Nc1ccccc1NC(=O)c1ccc(/C=C/C(=O)NCCc2c[nH]c3ccccc23)cc1` [Vj, N-(2-Amino-phenyl)-4-{2-[2-(1H-indol-3-yl)-ethylcarbamoyl]-vinyl}-benzamide] are 1000 nM, 300 nM and 1000 nM.
The matching figures for `Nc1ccccc1NC(=O)c1ccc(/C=C/C(=O)c2ccccc2)cc1` [XXIVa, N-(2-Amino-phenyl)-4-(3-oxo-3-phenyl-propenyl)-benzamide]: 4000 nM, 400 nM and 3000 nM.
For the compound `Nc1ccccc1NC(=O)c1ccc(/C=C/CN2CCN(Cc3ccccc3)CC2)cc1` [XXXb, N-(2-Amino-phenyl)-4-[3-(4-benzyl-piperazin-1-yl)-propenyl]-benzamide], the values for the IC50 (in assay [1]; in the assay with HCT116 cells) were 4000 nM and 1000 nM, respectively. Besides, in assay [2], the EC50 was determined as 2000 nM.
The matching figures for `Nc1ccccc1NC(=O)c1ccc(/C=C/C(=O)NCCOc2ccccc2)cc1` [Vd, N-(2-Amino-phenyl)-4-[2-(2-phenoxy-ethylcarbamoyl)-vinyl]-benzamide]: 1000 nM, 400 nM and 1000 nM.
The corresponding values for `Nc1ccccc1NC(=O)c1ccc(/C=C/C(=O)NCc2cccnc2)cc1` [Vb, N-(2-Amino-phenyl)-4-{2-[(pyridin-3-ylmethyl)-carbamoyl]-vinyl}-benzamide] are 3000 nM, 70 nM and 1000 nM.
The matching figures for `COc1ccc(/C=C/C(=O)c2ccc(C(=O)Nc3ccccc3N)cc2)cc1OC1CCCC1` [Ij, N-(2-Amino-phenyl)-4-[3-(3-cyclopentyloxy-4-methoxy-phenyl)-acryloyl]-benzamide]: 4000 nM, 700 nM and 5000 nM.
